The record followed here is patent US8153624B2, “Compounds and methods for modulating FXR” (Eli Lilly and Company, priority 2007, dated 2012).

Test [1] has as its target T1, human FXR ligand-binding domain (Homo sapiens, UniProt Q96RI1).
T1 construct: purchased Invitrogen Corporation
T1 sequence (Q96RI1 242-472 isoform Q96RI1-2 limits assumed): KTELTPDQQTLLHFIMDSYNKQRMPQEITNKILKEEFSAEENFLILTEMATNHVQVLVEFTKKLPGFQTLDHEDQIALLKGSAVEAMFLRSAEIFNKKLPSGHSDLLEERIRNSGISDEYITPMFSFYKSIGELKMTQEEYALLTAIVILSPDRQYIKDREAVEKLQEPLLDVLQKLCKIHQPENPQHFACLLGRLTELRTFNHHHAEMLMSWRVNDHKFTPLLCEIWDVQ
T1 sequence (Q15788 600-774 partner limits assumed): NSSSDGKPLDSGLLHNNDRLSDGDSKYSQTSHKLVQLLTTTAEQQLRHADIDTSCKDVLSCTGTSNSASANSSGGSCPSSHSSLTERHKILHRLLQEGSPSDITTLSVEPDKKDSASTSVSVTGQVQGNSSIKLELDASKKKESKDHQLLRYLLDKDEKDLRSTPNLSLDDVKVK
Briefly: FXR-SRC-1 Cofactor Recruitment Assay (Alpha Screen). Format: biochemical. The settings on record: FXR-SRC-1 interaction. The protocol: FXR-SRC-1 Cofactor Recruitment Assay
Compounds are evaluated by an FXR-SRC-1 Cofactor Recruitment assay using the Alpha (Amplified Luminescent Proximity Homogeneous Assay) Screen technology according to the manufacturer instructions (Perkin Elmer Corporation, Norwalk, Conn., USA) at various concentrations. Mix purified 6-HIS-tagged human FXR ligand-binding domain (amino acids 242-472), purified GST-tagged human SRC-1 nuclear receptor-interacting domain (amino acids 220-394), Nickel Chelate donor beads (Perkin Elmer Corporation) and Anti-GST antibody acceptor beads (Perkin Elmer Corporation) together and aliquot 12 μL per well into 384 well plates. Add compounds in 3 μL per well for a total assay volume of 15 μL and incubate at room temperature in the dark for 4 hours. After incubation, compounds that bind FXR and induce the interaction between the FXR and SRC-1 (available from Invitrogen Corporation Carlsbad, Calif., USA) would bring the two bead types into proximity generating luminescence that is quantified. Calculate EC50 values. Exemplified compounds of the invention are found to be effective in the SRC-1 FXR interaction assay with EC50s of about 38-5200 nM.

The target of the next test is T2, Human FXR (Homo sapiens, UniProt Q96RI1).
T2 construct: expressed in transfected cells
T2 sequence (Q96RI1 1-486): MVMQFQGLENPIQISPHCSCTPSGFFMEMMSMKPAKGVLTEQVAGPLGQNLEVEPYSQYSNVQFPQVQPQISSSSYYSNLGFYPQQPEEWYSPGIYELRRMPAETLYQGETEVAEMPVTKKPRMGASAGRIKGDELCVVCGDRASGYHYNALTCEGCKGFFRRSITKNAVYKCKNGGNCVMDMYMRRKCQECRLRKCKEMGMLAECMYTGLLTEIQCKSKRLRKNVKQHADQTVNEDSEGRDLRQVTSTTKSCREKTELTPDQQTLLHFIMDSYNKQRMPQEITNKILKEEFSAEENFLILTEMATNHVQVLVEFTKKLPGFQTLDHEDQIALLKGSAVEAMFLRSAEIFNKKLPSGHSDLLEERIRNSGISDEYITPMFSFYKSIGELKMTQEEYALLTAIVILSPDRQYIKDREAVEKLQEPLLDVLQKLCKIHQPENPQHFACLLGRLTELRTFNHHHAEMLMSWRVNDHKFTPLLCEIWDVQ
Briefly: Human FXR/FXR-Response Element Luciferase Reporter Cotransfection Assay. Format: cell-based. The protocol: Human FXR/FXR-Response Element Luciferase Reporter Cotransfection Assay
Compounds of the present invention are tested using the Human FXR/FXR-Response Element Luciferase Reporter Cotransfection Assay. The assay is performed essentially as described in J. Biological Chem. 2006, 281 (52), 39831-39838, except that 10 μg total DNA per million cells is used. One of skill in the art is able to perform this assay without undue experimentation.
On the technique in general: In a reporter assay the amount or activity of a reporter protein is the signal.

The next test relates to LDLR−/− mice. In words: LDLR−/− Serum Lipid Modulation. The format is in vivo. The note with it: male LDLR−/− mice on western diet, 10 mg/kg once daily oral gavage, seven days. As for the experimental part:
LDLR−/− Serum Lipid Modulation
Acclimate animals for two weeks prior to study initiation. Maintain mice on a 12:12 hour light-dark cycle at 21° C. Provide deionized water ad libitum and maintain for two weeks on ‘western diet’ TD 88137 Diet (42% fat, 0.15% cholesterol, Harlan Teklad, Madison, Wis., USA) ad libitum. Optimize groups of five ten-week-old male LDLR−/− mice based on serum triglyceride and cholesterol levels. […] Separate lipoprotein fractions by FPLC, and quantify cholesterol with an in-line detection system. […] The colored product produced in the presence of cholesterol is monitored in the flow stream at 505 nm, and the analog voltage from the monitor is converted to a digital signal for collection and analysis. The change in voltage corresponding to change in cholesterol concentration is plotted vs. time, and the area under the curve corresponding to the elution of VLDL-C and HDL-C is calculated using Turbo Chrome® version 4.12F12 software (PerkinElmer Corporation). […]

As to `O=C(O)c1ccc(N2CCC(OCc3c(-c4c(Cl)cccc4Cl)noc3C3CC3)CC2)cc1` [Example 7, 4-{4-[5-Cyclopropyl-3-(2,6-dichloro-phenyl)-isoxazol-4-ylmethoxy]-piperidin-1-yl}-benzoic acid], the EC50 (commonly the midpoint of the concentration-response curve) in test [1] is ~325 nM; at Human FXR it was 220 nM.

Take `Cc1cc(N2CCC(OCc3c(-c4c(Cl)cccc4Cl)noc3C3CC3)CC2)ccc1C(=O)O` [Example 9, 4-{4-[5-Cyclopropyl-3-(2,6-dichloro-phenyl)-isoxazol-4-ylmethoxy]-piperidin-1-yl}-2-methyl-benzoic acid]: in the test with LDLR−/− mice, the lowers total cholesterol result was “about 76%” and the lowers triglycerides result is on record as “about 75%”.
